The record followed here is patent publication US10023593B2, “ALK kinase inhibitor, and preparation method and uses thereof” (BEIJING PEARL BIOTECHNOLOGY LIMITED LIABILITY COMPANY, priority 2014, dated 2018).

The subject of one assay is NCI-H2228 cell line. Description: CellTiter-Glo cell proliferation inhibition on NCI-H2228 cell line. The format is cell-based. The settings on record: Homo sapiens, 96 h, NCI-H2228 cells, 5000 cells/well, 4 days drug treatment. The protocol:
3. Cell Proliferation Inhibitory Activities of the Compounds of the Present Invention on NCI-H2228 Cell Line
? experimental method ? CellTiter-Glo® Luminescent Cell Viability Assay kit from Promega company was used to detect cell proliferation inhibitory activities of the compounds on NCI-H2228 cell line.
? instrument ? Envision 2104 plate reader from PerKinElmer company; Vi-Cell XR cell counter from Beckman Counter company; MCO-18AIC CO2 incubator from SANYO company.
? experiment material ? CellTiter-Glo® Luminescent Cell Viability Assay Kit (Promega company, catalog No. G7573); NCI-H2228 cell line (ATCC, catalog No. CRL-5935); RPMI-1640 medium (HyClone company, catalog No. SH30809.01B); fetal bovine serum (FBS) (Gibco company, catalog No. 10099-141); trypsin (Trypsin) (Gibco company, catalog No. 25200-072); PBS (HyClone company, catalog No. SH30256.01B); 96 wells cell culture plate (Corning company, catalog No. 3610); DMSO (AMRESCO company, catalog No. 0231); 96 wells plates (for diluting compounds) (CITOTEST company, catalog No. Ref36020096D);
? experimental condition ? NCI-H2228 cells in exponential growth phase were collected and treated with trypsin (Trypsin), and viable cells were counted by Vi-Cell XR cell counter. Cell suspension was adjusted to 62500 cells/ml with culture medium (RPMI-1640+10% FBS). 80 μl cell suspension was added into each well of 96 wells cell culture plate so that the final cell number of NCI-H2228 cells was 5000 cells/well. The cells were cultivated in an incubator with an atmosphere of 37° C., 5% CO2 and 95% humidity for 2 hours and then each well was added with 20 μl compounds in RPMI-1640 medium solution (the final concentration of DMSO was 0.5%). 4 days after drug treatment, each well was added with 50 μl CellTiter-Glo solution which was previously thawed and equilibrated to room temperature, and mixed for 2 minutes with microplate shaker. After placing at room temperature for 10 minutes, luminescence value was measured by PerkinElmer Envision 2104 plate reader and the data was analyzed.
? tested samples ? Compounds of the examples.
? data analysis ? Luminescence value of DMSO solvent control (Vvehicle control, which is the mean luminescence value from DMSO solvent control group)
Tested luminescence value (Vsample, which is the luminescence value from given concentration of compounds group) Inhibition rate (%)=(1−Vsample/Vvehicle control)×100
? data processing ? IC50 of compounds was calculated by using XLfit program in Excel.
With `Cc1cc(Nc2ncc(Cl)c(Nc3cn(C)nc3S(=O)(=O)C(C)C)n2)c(OC2CC2)cc1C1CCN(C2CCN(C)CC2)CC1` [Final product 158, 5-chloro-N^2-(2-cyclopropoxy-5-methyl-4-(1-(1-methyl-piperidin-4-yl)piperidin-4-yl)phenyl)-N^4-(3-(isopropylsulfonyl)-1-methyl-1H-pyrazol-4-yl)pyrimidin-2,4-diamine], the IC50 came out at 170 nM.

Still in this assay, the particulars now being: Homo sapiens, NCI-H2228, 96 h, NCI-H2228 cells, 5000 cells/well, 4 days drug treatment.
`Cc1cc(Nc2ncc(Cl)c(Nc3cn(C)nc3S(=O)(=O)C(C)C)n2)c(OC2CC2)cc1OC1CN(C)C1` [Final product 76] gave an IC50 of 215 nM.
Same read-out and setting: the figure for `Cc1cc(Nc2ncc(Cl)c(Nc3cn(C)nc3S(=O)(=O)C(C)C)n2)c(OC(C)C)cc1C1CCCN(C)C1` (centres unmarked) [Final product 62] is 122 nM; for `Cc1cc(Nc2ncc(Cl)c(Nc3cn(C)nc3S(=O)(=O)C(C)C)n2)c(OC2CC2)cc1C1CCN2CCCC2C1` (centres unmarked) [Final product 105] it is 63 nM; for `Cc1cc(Nc2ncc(Cl)c(Nc3cn(C)nc3S(=O)(=O)CC(C)C)n2)c(OC2CC2)cc1C1CCN(C)C(C)C1` (centres unmarked) [Final product 93] it is 67 nM.
Still for that read-out and setting: to `CC(C)S(=O)(=O)c1nn(C)cc1Nc1nc(Nc2cc3c(cc2OC2CC2)CN(C)CC3)ncc1Cl` [Final product 112] belongs 211 nM.
The same measure, in the same setting: to `Cc1cc(Nc2ncc(Cl)c(Nc3cn(C)nc3S(=O)(=O)C(C)C)n2)c(OC2CCC2)cc1C1CCCN(C(C)(C)CO)C1` (centres unmarked) [Final product 154] belongs 128 nM.
Compound `Cc1cc(Nc2ncc(Cl)c(Nc3cn(C)nc3S(=O)(=O)C(C)C)n2)c(OC2CC2)cc1C1CCN(CC(=O)N(C)C)CC1` [Final product 155, 2-(4-(4-(5-chloro-4-(3-(isopropoxysulfonyl)-1-methyl-1H-pyrazol-4-yl-amino)pyrimidin-2-yl-amine)-5-cyclopropoxy-2-methylphenyl)piperidin-1-yl)-N,N-dimethylacetamide] showed an IC50 of 75 nM.
The same measure, in the same setting: to `Cc1cc(Nc2ncc(Cl)c(Nc3cn(C)nc3S(=O)(=O)C(C)C)n2)c(OC(C)C)cc1C1CN(C(C)C)C1` [Final product 132] belongs 207 nM; to `COCCN1CCC(c2cc(OC3CCC3)c(Nc3ncc(Cl)c(Nc4cn(C)nc4S(=O)(=O)C(C)C)n3)cc2C)CC1` [Final product 144, 5-chloro-N^2-(2-cyclobutyloxy-4-(1-(2-methoxyethyl)piperidin-4-yl)-5-methyl-phenyl)-N^4-(3-(isopropylsulfonyl)-1-methyl-1H-pyrazol-4)-pyrimidin-2,4-diamine], 48 nM; to `Cc1cc(Nc2ncc(Cl)c(Nc3cn(C)nc3S(=O)(=O)C(C)C)n2)c(OC2CC2)cc1CN1CCN(C)CC1` [Final product 75], 109 nM.
The same measure, in the same setting: to `CC(=O)N1CCN([C@H]2CC[C@@H](c3cc(OC4CC4)c(Nc4ncc(Cl)c(Nc5cn(C)nc5S(=O)(=O)C(C)C)n4)cc3C)CC2)CC1` [Final product 203] belongs 189 nM; to `Cc1cc(Nc2ncc(C)c(Nc3cn(C)nc3S(=O)(=O)C(C)C)n2)c(OC(C)C)cc1C1CCN(C)CC1` [Final product 73], 151 nM; to `Cc1cc(Nc2ncc(Cl)c(Nc3cn(C)nc3S(=O)(=O)C(C)C)n2)c(OC2CC2)cc1[C@H]1CC[C@@H](NC2CC2)CC1` [Final product 195], 116 nM.
In the case of `Cc1cc(Nc2ncc(Cl)c(Nc3cn(C)nc3S(=O)(=O)C(C)C)n2)c(OC(C)C)cc1C1CCN(CCO)CC1` [Final product 136], it took 112 nM to reach half-maximal inhibition (IC50).
Still for that read-out and setting: to `Cc1cc(Nc2ncc(Cl)c(Nc3cn(C)nc3S(=O)(=O)CC(C)C)n2)c(OC2CC2)cc1C1CCN(C)C(=O)C1` (centres unmarked) [Final product 104] belongs 70 nM; to `Cc1cc(Nc2ncc(Cl)c(Nc3cn(C)nc3S(=O)(=O)C(C)C)n2)c(OC2CC2)cc1[C@H]1CC[C@H](NC(=O)C2CC2)CC1` [Final product 207, N-(4-(4-(5-chloro-4-(3-(isopropylsulfonyl)-1-methyl-1H-pyrazol-4-amine)pyrimidin-2-amine)-5-cyclopropoxy-2-methylphenyl)cyclohexyl) cyclopropyl carboxamide], 154 nM.
On the same count and under the same terms, the figure for `COc1cc(C2CCN(C(C)C)CC2)c(C)cc1Nc1ncc(Cl)c(Nc2cn(C)nc2S(=O)(=O)C(C)C)n1` [Final product 124] is 86 nM; for `Cc1cc(Nc2ncc(Cl)c(Nc3cn(C)nc3S(=O)(=O)CC(C)C)n2)c(OC2CC2)cc1C1CCN(C(C)(C)CO)CC1` [Final product 149] it is 57 nM.
Same read-out and setting: the figure for `Cc1cc(Nc2ncc(F)c(Nc3cn(C)nc3S(=O)(=O)C(C)C)n2)c(OC(C)C)cc1C1CCN(C)CC1` [Final product 71] is 199 nM; for `COCCN1CCC(c2cc(OC(C)C)c(Nc3ncc(Cl)c(Nc4cn(C)nc4S(=O)(=O)C(C)C)n3)cc2C)CC1` [Final product 142, 5-chloro-N^2-(2-isopropoxy-4-(1-(2-methoxyethyl)piperidin-4-yl)-5-methyl-phenyl)-N^4-(3-(isopropylsulfonyl)-1-methyl-1H-pyrazol-4)-pyrimidin-2,4-diamine] it is 140 nM; for `Cc1cc(Nc2ncc(Cl)c(Nc3cn(C)nc3S(=O)(=O)C(C)C)n2)c(OC2CCC2)cc1C1CCN(C(C)C)CC1` [Final product 131] it is 52 nM.
As to `Cc1cc(Nc2ncc(Cl)c(Nc3cn(C)nc3S(=O)(=O)C(C)C)n2)c(OC2CCC2)cc1C1CCN(C)CC1` [Final product 63], inhibition was half-maximal at 31 nM (IC50).
Same read-out and setting: to `Cc1cc(Nc2ncc(Cl)c(Nc3cn(C)nc3S(=O)(=O)CC(C)C)n2)c(OC2CC2)cc1[C@H]1CC[C@@H](NC2CC2)CC1` [Final product 179] belongs 137 nM; to `Cc1cc(Nc2ncc(Cl)c(Nc3cn(C)nc3S(=O)(=O)C(C)C)n2)c(OC(C)C)cc1C1CCN(C)C(C)C1` (centres unmarked) [Final product 94], 79 nM.
`Cc1cc(Nc2ncc(Cl)c(Nc3cn(C)nc3S(=O)(=O)C(C)C)n2)c(OC(C)C)cc1[C@H]1CC[C@H](NC2CC2)CC1` [Final product 186] returned an IC50 of 253 nM.
`CCN1CCCC(c2cc(OC3CC3)c(Nc3ncc(Cl)c(Nc4cn(C)nc4S(=O)(=O)CC(C)C)n3)cc2C)C1` (centres unmarked) [Final product 121] came in with an IC50 of 168 nM.
In turn, `CCOc1cc(C2CCN(C(C)C)CC2)c(C)cc1Nc1ncc(Cl)c(Nc2cn(C)nc2S(=O)(=O)C(C)C)n1` [Final product 125] registered an IC50 of 47 nM.
Still for that read-out and setting: the figure for `Cc1cc(Nc2ncc(Cl)c(Nc3cn(C)nc3S(=O)(=O)C(C)C)n2)c(OC2CC2)cc1C1CC2COCC(C1)N2` (centres unmarked) [Final product 108] is 33 nM; for `COCC(C)(C)N1CCC(c2cc(OC(C)C)c(Nc3ncc(Cl)c(Nc4cn(C)nc4S(=O)(=O)C(C)C)n3)cc2C)CC1` [Final product 85] it is 77 nM.
As to `Cc1cc(Nc2ncc(Cl)c(Nc3cn(C)nc3S(=O)(=O)C(C)C)n2)c(OC(C)C)cc1C1CC(C)(C)N(C)C(C)(C)C1` [Final product 98], the midpoint of inhibition, the IC50, lay at 240 nM.
Still for that read-out and setting: to `Cc1cc(Nc2ncc(Cl)c(Nc3cn(C)nc3S(=O)(=O)C(C)C)n2)c(OC2CC2)cc1C1CCCN(C(C)C)C1` (centres unmarked) [Final product 129] belongs 32 nM; to `CCOc1cc(C2CCN(CCOC)CC2)c(C)cc1Nc1ncc(Cl)c(Nc2cn(C)nc2S(=O)(=O)C(C)C)n1` [Final product 143, 5-chloro-N^2-(2-ethoxy-4-(1-(2-methoxyethyl)piperidin-4-yl)-5-methyl-phenyl)-N^4-(3-(isopropylsulfonyl)-1-methyl-1H-pyrazol-4)-pyrimidin-2,4-diamine], 32 nM; to `Cc1cc(Nc2ncc(Cl)c(Nc3cn(C)nc3S(=O)(=O)CC(C)C)n2)c(OC2CC2)cc1C1CCCN(C(C)C)C1` (centres unmarked) [Final product 130], 28 nM.
Still for that read-out and setting: to `CCN(CC)[C@H]1CC[C@H](c2cc(OC(C)C)c(Nc3ncc(Cl)c(Nc4cn(C)nc4S(=O)(=O)C(C)C)n3)cc2C)CC1` [Final product 184] belongs 188 nM; to `Cc1cc(Nc2ncc(Cl)c(Nc3cn(C)nc3S(=O)(=O)C(C)C)n2)c(OC2CC2)cc1[C@H]1CC[C@@H](N(C)C(C)C)CC1` [Final product 193], 116 nM.
The same measure, in the same setting: the figure for `CCN1CCC(c2cc(OC3CC3)c(Nc3ncc(Cl)c(Nc4cn(C)nc4S(=O)(=O)CC(C)C)n3)cc2C)CC1` [Final product 117] is 158 nM; for `Cc1cc(Nc2ncc(Cl)c(Nc3cn(C)nc3S(=O)(=O)C(C)C)n2)c(OC(C)C)cc1[C@H]1CC[C@@H](NC(C)C)CC1` [Final product 187] it is 111 nM.

As a reminder, the IC50 is the midpoint of a concentration-inhibition curve.
